# Measured values reported in PubChem BioAssay (NCI).
#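 Values below derive from 48-hour exposures of cells grown in 96-well plates, with endpoints linearly interpolated between the two concentrations bracketing the appropriate inhibition level. TGI is the concentration that stops growth completely.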
# Columns and labels:
# Assay in all cases: NCI tumour cell line growth inhibition, 48 h
# 786-0 renal = tested on: 786-0 renal
# A549 NSCLC = tested on: A549 NSCLC
# ACHN renal = tested on: ACHN renal
# CAKI-1 renal = tested on: CAKI-1 renal
# CCRF-CEM leukemia = tested on: CCRF-CEM leukemia
# COLO 205 colon = tested on: COLO 205 colon
# DLD-1 colon = tested on: DLD-1 colon
# DMS 114 small cell lung = tested on: DMS 114 small cell lung
# EKVX NSCLC = tested on: EKVX NSCLC
# HCC-2998 colon = tested on: HCC-2998 colon
# HCT-116 colon = tested on: HCT-116 colon
# HCT-15 colon = tested on: HCT-15 colon
# HL-60(TB) leukemia = tested on: HL-60(TB) leukemia
# HOP-18 NSCLC = tested on: HOP-18 NSCLC
# HOP-62 NSCLC = tested on: HOP-62 NSCLC
# HOP-92 NSCLC = tested on: HOP-92 NSCLC
# HT29 colon = tested on: HT29 colon
# IGROV1 ovarian = tested on: IGROV1 ovarian
# K-562 leukemia = tested on: K-562 leukemia
# KM12 colon = tested on: KM12 colon
# KM20L2 colon = tested on: KM20L2 colon
# LOX IMVI melanoma = tested on: LOX IMVI melanoma
# LXFL 529 NSCLC = tested on: LXFL 529 NSCLC
# M14 melanoma = tested on: M14 melanoma
# M19-MEL melanoma = tested on: M19-MEL melanoma
# MALME-3M melanoma = tested on: MALME-3M melanoma
# MOLT-4 leukemia = tested on: MOLT-4 leukemia
# NCI-H23 lung = tested on: NCI-H23 lung
# NCI-H522 lung = tested on: NCI-H522 lung
# OVCAR-3 ovarian = tested on: OVCAR-3 ovarian
# OVCAR-5 ovarian = tested on: OVCAR-5 ovarian
# OVCAR-8 ovarian = tested on: OVCAR-8 ovarian
# RPMI-8226 leukemia = tested on: RPMI-8226 leukemia
# RXF 393 renal = tested on: RXF 393 renal
# SF-268 CNS = tested on: SF-268 CNS
# SF-295 CNS = tested on: SF-295 CNS
# SK-MEL-2 melanoma = tested on: SK-MEL-2 melanoma
# SK-MEL-28 melanoma = tested on: SK-MEL-28 melanoma
# SK-MEL-5 melanoma = tested on: SK-MEL-5 melanoma
# SK-OV-3 ovarian = tested on: SK-OV-3 ovarian
# SN12C renal = tested on: SN12C renal
# SNB-19 CNS = tested on: SNB-19 CNS
# SNB-75 CNS = tested on: SNB-75 CNS
# SR leukemia = tested on: SR leukemia
# SW-620 colon = tested on: SW-620 colon
# TK-10 renal = tested on: TK-10 renal
# U251 CNS = tested on: U251 CNS
# UACC-257 melanoma = tested on: UACC-257 melanoma
# UACC-62 melanoma = tested on: UACC-62 melanoma
# UO-31 renal = tested on: UO-31 renal
# A498 renal = tested on: A498 renal
# NCI-H226 lung = tested on: NCI-H226 lung
# NCI-H460 lung = tested on: NCI-H460 lung
# SNB-78 CNS = tested on: SNB-78 CNS
# XF 498 CNS = tested on: XF 498 CNS
# DMS 273 small cell lung = tested on: DMS 273 small cell lung
# OVCAR-4 ovarian = tested on: OVCAR-4 ovarian
# SF-539 CNS = tested on: SF-539 CNS
smiles,measurement,setting,value
O=c1[nH]cc(COCC(F)(F)C(F)(F)C(F)(F)C(F)F)c(=O)[nH]1,TGI,786-0 renal,> 100 µM
same,TGI,A549 NSCLC,> 100 µM
same,TGI,ACHN renal,> 100 µM
same,TGI,CAKI-1 renal,> 100 µM
same,TGI,CCRF-CEM leukemia,> 100 µM
same,TGI,COLO 205 colon,> 100 µM
same,TGI,DLD-1 colon,> 100 µM
same,TGI,DMS 114 small cell lung,> 100 µM
same,TGI,EKVX NSCLC,> 100 µM
same,TGI,HCC-2998 colon,> 100 µM
same,TGI,HCT-116 colon,> 100 µM
same,TGI,HCT-15 colon,> 100 µM
same,TGI,HL-60(TB) leukemia,> 100 µM
same,TGI,HOP-18 NSCLC,> 100 µM
same,TGI,HOP-62 NSCLC,> 100 µM
same,TGI,HOP-92 NSCLC,> 100 µM
same,TGI,HT29 colon,> 100 µM
same,TGI,IGROV1 ovarian,> 100 µM
same,TGI,K-562 leukemia,> 100 µM
same,TGI,KM12 colon,> 100 µM
same,TGI,KM20L2 colon,> 100 µM
same,TGI,LOX IMVI melanoma,> 100 µM
same,TGI,LXFL 529 NSCLC,> 100 µM
same,TGI,M14 melanoma,> 100 µM
same,TGI,M19-MEL melanoma,> 100 µM
same,TGI,MALME-3M melanoma,> 100 µM
same,TGI,MOLT-4 leukemia,> 100 µM
same,TGI,NCI-H23 lung,> 100 µM
same,TGI,NCI-H522 lung,> 100 µM
same,TGI,OVCAR-3 ovarian,> 100 µM
same,TGI,OVCAR-5 ovarian,> 100 µM
same,TGI,OVCAR-8 ovarian,> 100 µM
same,TGI,RPMI-8226 leukemia,> 100 µM
same,TGI,RXF 393 renal,> 100 µM
same,TGI,SF-268 CNS,> 100 µM
same,TGI,SF-295 CNS,> 100 µM
same,TGI,SK-MEL-2 melanoma,> 100 µM
same,TGI,SK-MEL-28 melanoma,> 100 µM
same,TGI,SK-MEL-5 melanoma,> 100 µM
same,TGI,SK-OV-3 ovarian,> 100 µM
same,TGI,SN12C renal,> 100 µM
same,TGI,SNB-19 CNS,> 100 µM
same,TGI,SNB-75 CNS,> 100 µM
same,TGI,SR leukemia,> 100 µM
same,TGI,SW-620 colon,> 100 µM
same,TGI,TK-10 renal,> 100 µM
same,TGI,U251 CNS,> 100 µM
same,TGI,UACC-257 melanoma,> 100 µM
same,TGI,UACC-62 melanoma,> 100 µM
same,TGI,UO-31 renal,> 100 µM
CC(C)(C)C(=O)/C=C/c1ccc(Oc2ccccc2)cc1,TGI,786-0 renal,40 µM
same,TGI,A498 renal,32.7 µM
same,TGI,A549 NSCLC,94.3 µM
same,TGI,ACHN renal,32.7 µM
same,TGI,CCRF-CEM leukemia,40.5 µM
same,TGI,DLD-1 colon,61.4 µM
same,TGI,EKVX NSCLC,39.1 µM
same,TGI,HCC-2998 colon,> 100 µM
same,TGI,HCT-116 colon,34.7 µM
same,TGI,HOP-18 NSCLC,34.9 µM
same,TGI,HOP-62 NSCLC,86.4 µM
same,TGI,HT29 colon,25 µM
same,TGI,IGROV1 ovarian,> 100 µM
same,TGI,K-562 leukemia,36 µM
same,TGI,KM12 colon,33.9 µM
same,TGI,KM20L2 colon,40.2 µM
same,TGI,LXFL 529 NSCLC,28.9 µM
same,TGI,M14 melanoma,34.5 µM
same,TGI,M19-MEL melanoma,> 100 µM
same,TGI,MALME-3M melanoma,44.6 µM
same,TGI,MOLT-4 leukemia,42.4 µM
same,TGI,NCI-H226 lung,36.2 µM
same,TGI,NCI-H460 lung,43.9 µM
same,TGI,NCI-H522 lung,24.1 µM
same,TGI,OVCAR-5 ovarian,33.8 µM
same,TGI,OVCAR-8 ovarian,> 100 µM
same,TGI,RPMI-8226 leukemia,29.3 µM
same,TGI,RXF 393 renal,52.8 µM
same,TGI,SF-268 CNS,62.1 µM
same,TGI,SF-295 CNS,> 100 µM
same,TGI,SK-MEL-2 melanoma,37.9 µM
same,TGI,SK-MEL-28 melanoma,> 100 µM
same,TGI,SK-MEL-5 melanoma,32.5 µM
same,TGI,SK-OV-3 ovarian,> 100 µM
same,TGI,SN12C renal,46 µM
same,TGI,SNB-19 CNS,68.1 µM
same,TGI,SNB-75 CNS,74.5 µM
same,TGI,SNB-78 CNS,75.7 µM
same,TGI,SW-620 colon,36.1 µM
same,TGI,TK-10 renal,59.7 µM
same,TGI,U251 CNS,28.4 µM
same,TGI,UACC-257 melanoma,42.6 µM
same,TGI,UO-31 renal,54.3 µM
same,TGI,XF 498 CNS,28.8 µM
Nc1ccc(C(=O)NN2C(=O)C(Cl)C2c2ccccc2Cl)cc1 (stereo not drawn),TGI,786-0 renal,3.35 µM
same,TGI,A549 NSCLC,27.8 µM
same,TGI,ACHN renal,30 µM
same,TGI,CAKI-1 renal,26.9 µM
same,TGI,CCRF-CEM leukemia,6.67 µM
same,TGI,COLO 205 colon,28.1 µM
same,TGI,DLD-1 colon,23 µM
same,TGI,DMS 114 small cell lung,18.8 µM
same,TGI,DMS 273 small cell lung,12 µM
same,TGI,EKVX NSCLC,31.7 µM
same,TGI,HCC-2998 colon,30.1 µM
same,TGI,HCT-116 colon,16.3 µM
same,TGI,HCT-15 colon,10.2 µM
same,TGI,HOP-18 NSCLC,8.87 µM
same,TGI,HOP-62 NSCLC,35.4 µM
same,TGI,HOP-92 NSCLC,14.9 µM
same,TGI,HT29 colon,23.5 µM
same,TGI,IGROV1 ovarian,26.4 µM
same,TGI,KM12 colon,24.5 µM
same,TGI,KM20L2 colon,29.9 µM
same,TGI,LOX IMVI melanoma,2.9 µM
same,TGI,LXFL 529 NSCLC,5.23 µM
same,TGI,M14 melanoma,25.9 µM
same,TGI,M19-MEL melanoma,20.5 µM
same,TGI,MALME-3M melanoma,31.4 µM
same,TGI,MOLT-4 leukemia,8.1 µM
same,TGI,NCI-H226 lung,31.5 µM
same,TGI,NCI-H23 lung,24.9 µM
same,TGI,NCI-H460 lung,16.5 µM
same,TGI,NCI-H522 lung,3.13 µM
same,TGI,OVCAR-3 ovarian,26.9 µM
same,TGI,OVCAR-4 ovarian,27.1 µM
same,TGI,OVCAR-5 ovarian,28.4 µM
same,TGI,OVCAR-8 ovarian,10.8 µM
same,TGI,RPMI-8226 leukemia,> 100 µM
same,TGI,RXF 393 renal,20.1 µM
same,TGI,SF-268 CNS,15.2 µM
same,TGI,SF-295 CNS,12.6 µM
same,TGI,SF-539 CNS,20.2 µM
same,TGI,SK-MEL-2 melanoma,24.5 µM
same,TGI,SK-MEL-28 melanoma,28.3 µM
same,TGI,SK-MEL-5 melanoma,29.5 µM
same,TGI,SK-OV-3 ovarian,29.6 µM
same,TGI,SNB-19 CNS,30.6 µM
same,TGI,SNB-75 CNS,31.3 µM
same,TGI,SNB-78 CNS,33 µM
same,TGI,SR leukemia,31.9 µM
same,TGI,SW-620 colon,10.7 µM
same,TGI,TK-10 renal,30.1 µM
same,TGI,U251 CNS,24.7 µM
same,TGI,UACC-257 melanoma,26.8 µM
same,TGI,UACC-62 melanoma,20.8 µM
same,TGI,UO-31 renal,30.8 µM
same,TGI,XF 498 CNS,31.5 µM
COC(=O)C(=C/c1ccc(OC)cc1)/C(C(=O)O)=C(/C)c1ccccc1,TGI,786-0 renal,> 100 µM
same,TGI,A498 renal,> 100 µM
same,TGI,A549 NSCLC,> 100 µM
same,TGI,ACHN renal,> 100 µM
same,TGI,CAKI-1 renal,> 100 µM
same,TGI,CCRF-CEM leukemia,> 100 µM
same,TGI,COLO 205 colon,> 100 µM
same,TGI,DLD-1 colon,> 100 µM
same,TGI,DMS 273 small cell lung,> 100 µM
same,TGI,EKVX NSCLC,> 100 µM
same,TGI,HCC-2998 colon,> 100 µM
same,TGI,HCT-116 colon,> 100 µM
same,TGI,HCT-15 colon,> 100 µM
same,TGI,HL-60(TB) leukemia,> 100 µM
same,TGI,HOP-18 NSCLC,> 100 µM
same,TGI,HOP-62 NSCLC,> 100 µM
same,TGI,HOP-92 NSCLC,> 100 µM
same,TGI,HT29 colon,> 100 µM
same,TGI,IGROV1 ovarian,> 100 µM
same,TGI,K-562 leukemia,> 100 µM
same,TGI,KM12 colon,> 100 µM
same,TGI,KM20L2 colon,> 100 µM
same,TGI,LOX IMVI melanoma,> 100 µM
same,TGI,LXFL 529 NSCLC,> 100 µM
same,TGI,M14 melanoma,> 100 µM
same,TGI,M19-MEL melanoma,> 100 µM
same,TGI,MALME-3M melanoma,> 100 µM
same,TGI,MOLT-4 leukemia,> 100 µM
same,TGI,NCI-H226 lung,> 100 µM
same,TGI,NCI-H23 lung,> 100 µM
same,TGI,NCI-H460 lung,> 100 µM
same,TGI,NCI-H522 lung,> 100 µM
same,TGI,OVCAR-3 ovarian,> 100 µM
same,TGI,OVCAR-4 ovarian,> 100 µM
same,TGI,OVCAR-5 ovarian,> 100 µM
same,TGI,OVCAR-8 ovarian,> 100 µM
same,TGI,RPMI-8226 leukemia,> 100 µM
same,TGI,RXF 393 renal,> 100 µM
same,TGI,SF-295 CNS,> 100 µM
same,TGI,SF-539 CNS,> 100 µM
same,TGI,SK-MEL-2 melanoma,> 100 µM
same,TGI,SK-MEL-5 melanoma,> 100 µM
same,TGI,SK-OV-3 ovarian,> 100 µM
same,TGI,SN12C renal,> 100 µM
same,TGI,SNB-19 CNS,> 100 µM
same,TGI,SNB-75 CNS,> 100 µM
same,TGI,SNB-78 CNS,> 100 µM
same,TGI,SR leukemia,> 100 µM
same,TGI,SW-620 colon,> 100 µM
same,TGI,TK-10 renal,> 100 µM
same,TGI,U251 CNS,> 100 µM
same,TGI,UACC-257 melanoma,> 100 µM
same,TGI,UACC-62 melanoma,> 100 µM
same,TGI,UO-31 renal,> 100 µM
same,TGI,XF 498 CNS,> 100 µM
